Measurements: patent US20160193231A1, “RETT SYNDROME AND TREATMENTS THEREFORE” (RETT SYNDROME RESEARCH TRUST, priority 2013, published 2016)
Where a name gives a salt, the structure may show the parent alone. Read-outs that look alike come from different tables or passages of the source.

Experiments:
[1] = test system: 129.Mecp2^tm1.1Bird/Y mice; assay: Open field locomotor activity, Mecp2 null males; assay type: in vivo, mouse
[2] = test system: 129.Mecp2^tm1.1Bird/Y mice; assay: Accelerating rotarod task, Mecp2 null males; assay type: in vivo, mouse
Mecp2^tm1.1Bird/Y mice = assay: Peripheral fat measures of treated Mecp2 null males; assay type: in vivo, mouse; conditions: Example 6/FIG. 9; 25 mg/kg Sub-Q 2x per week
Method: The preparation of the agents used in this Example was as follows: metformin hydrochloride, was dissolved in saline (Sigma). The day of injection, the metformin was diluted to 18 parts stock solution, 1 part DMSO, and 1 part ethanol, such that the desired dose for a 20 g mouse was given in 100 ul. […] The animals were treated starting at 5 weeks of age until the age of 10 weeks, or for a period of 5 weeks. Body weights were obtained weekly starting at 5 weeks of age prior to treatment, and ending at 10 weeks, at the end of study. Shown in the FIG. 9 are the weights after 3 weeks of treatment (at 8 weeks of age, panel A) and after 5 weeks of treatment (10 weeks of age, panel D).

MECP2 mutant mice = assay: Trait amelioration / symptom rescue in Mecp2 mutant mice; assay type: in vivo, mouse; conditions: for rescue of motor traits and longevity: male mice, drugs sub-cutaneously
cytochrome p450 enzymes = conditions: cited from earlier work
[3] = test system: 129.Mecp2^tm1.1Bird/Y mice; assay: Survival (longevity) of treated Mecp2 null male mice; assay type: in vivo, mouse; conditions: 129.Mecp2^tm1.1Bird/Y males, fluvastatin 3 mg/kg s.c.
[4] = cited from earlier work
[5] = in vivo; cited from earlier work
[6] = cited from earlier work; remark: listed apart in the source
[7] = cited from earlier work; remark: listed apart in the source
[8] = test system: 129.Mecp2^tm1.1Bird/Y mice; assay: Serum/plasma cholesterol, Mecp2 null males; assay type: in vivo, mouse; conditions: by P70; fluvastatin p=0.001, lovastatin p=0.001
[9] = test system: 129.Mecp2^tm1.1Bird/Y mice; assay: Liver lipid measurement, Mecp2 null males; assay type: in vivo, mouse; conditions: P70; fluvastatin p=0.02; lovastatin p=0.386
[10] = Example 6/FIG. 9, 25 mg/kg Sub-Q (3 mg/kg elsewhere in the source) 2x per week, vs vehicle

O=S(=O)(c1ccccc1)N(CC(F)(F)F)c1ccc(C(O)(C(F)(F)F)C(F)(F)F)cc1 [T090317]
motor performance, open field activity [1, 10]: improved motor performance | motor performance, rotarod [2, 10]: improved motor performance | peripheral fat measures (Mecp2^tm1.1Bird/Y mice): did not appear to improve

CC(C)c1c(C(=O)Nc2ccccc2)c(-c2ccccc2)c(-c2ccc(F)cc2)n1CC[C@@H](O)C[C@@H](O)CC(=O)O [atorvastatin]
rescue of motor traits and longevity (MECP2 mutant mice): varying degrees of rescue

Cl.F/C(COc1ccc2c(c1)[nH]c1ccccc12)=C1/CN2CCC1CC2 [(E)-2-[2-fluoro-2-(quinuclidin-3-ylidene)ethoxy]-9H-carbazole monohydrochloride]
improvement of symptoms (MECP2 mutant mice; Mecp2 mice, drugs targeting squalene synthase or squalene epoxidase): did not significantly improve symptoms

CN(C)C(=N)N=C(N)N [metformin, metformin hydrochloride]
effect on Mecp2^tm1.1Bird/Y mice (FIG. 9 measures) (MECP2 mutant mice; Example 6, 30 mg/kg IP 2x per week, 5 to 10 weeks of age, vs vehicle): little effect

CC(C)n1c(/C=C/C(O)CC(O)CC(=O)O)c(-c2ccc(F)cc2)c2ccccc21 (stereo not shown) [fluvastatin]
Metabolized by: (cytochrome p450 enzymes): Cyp2C9 | survival beyond 120 days [3]: 57% | median longevity ([3]; compared to 87 days, p<0.0001): 122 days | LD50 (oral): ([4]; mouse, in vivo, po): >2000 mg/kg | half-life [5]: approximately 96 hours | Lipophilicity (LogD): [6]: 1.00-1.25 | solubility in water [7]: soluble in water

CCC(C)(C)C(=O)O[C@H]1C[C@@H](C)C=C2C=C[C@H](C)[C@H](CC[C@@H]3C[C@@H](O)CC(=O)O3)[C@H]21 [simvastatin]
half-life [5]: 2 to 3 h

CC[C@H](C)C(=O)O[C@H]1C[C@@H](C)C=C2C=C[C@H](C)[C@H](CC[C@@H]3C[C@@H](O)CC(=O)O3)[C@H]21 [lovastatin]
Metabolized by: (cytochrome p450 enzymes): Cyp3A4 | Open field activity (beam breaks) ([1]; P70 treated null males vs vehicle, fluvastatin p=0.026, lovastatin p=0.011): increased | rescue of motor traits and longevity (MECP2 mutant mice): best rescue | Rotarod performance ([2]; P56 treated null males vs vehicle, fluvastatin 3 mg/kg s.c. p=0.015, lovastatin […] s.c. p=0.009): improves | LD50 (oral): ([4]; (mouse)): >1000 mg/kg | plasma cholesterol [8]: lowers | elevated lipid concentration in livers [9]: ameliorates | Lipophilicity (LogD): [6]: 1.75-1.50
